{
  "source": "paper PMC10349806",
  "about": "(Nature Communications, 2023)",
  "key": {"PfCRT variant E207L": {"biological_target": "T1, PfCRT variant E207L (Plasmodium falciparum, UniProt Q9N623, A220S/E207L/I356T/K76T/M74I/N326S/N75E/Q271E/R371I)", "T1 construct": "expressed in transfected cells; host or cells: Xenopus laevis oocytes injected with in vitro transcribed RNA (pSP64T)", "T1 sequence (Q9N623 1-424 M74I/N75E/K76T/E207L/A220S/Q271E/N326S/I356T/R371I)": "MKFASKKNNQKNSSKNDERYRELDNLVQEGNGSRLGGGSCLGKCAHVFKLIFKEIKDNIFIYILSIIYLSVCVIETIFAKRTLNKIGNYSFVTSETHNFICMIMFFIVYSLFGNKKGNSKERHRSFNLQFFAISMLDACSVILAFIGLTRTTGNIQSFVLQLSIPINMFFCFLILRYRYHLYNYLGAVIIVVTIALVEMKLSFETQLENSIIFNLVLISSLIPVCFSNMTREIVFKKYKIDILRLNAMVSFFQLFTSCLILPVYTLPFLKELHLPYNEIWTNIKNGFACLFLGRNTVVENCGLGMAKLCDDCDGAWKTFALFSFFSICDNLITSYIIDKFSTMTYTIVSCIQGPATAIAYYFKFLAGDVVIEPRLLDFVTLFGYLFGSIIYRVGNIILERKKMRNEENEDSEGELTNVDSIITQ", "experiment": "CQ uptake assay, oocytes expressing E207L", "type": "cell-based", "method": "(§1) Site-directed mutagenesis of PfCRT^Dd2 was performed as described using the megaprimer method with overlap extension[21],[54]. The primer pairs used are listed in Supplementary Table 6. Please note that a codon-optimized and oocyte-adapted version of PfCRT^Dd2 was used[22] (Supplementary Fig. 16). The resulting DNA fragment was cloned into the SP64T expression vector and verified by sequencing.\n(§2) Oocytes were obtained as described previously. Briefly, adult (>2 years old) female X. laevis frogs (NASCO) were anesthetized in a cooled solution of ethyl 3-amino benzoate methanesulfonate (0.1%, w/v), followed by a surgical removal of parts of the ovary. The ovary lobes were carefully dissected and small pieces of oocytes were incubated in Ca^2+-free ND96 buffer (96 mM NaCl, 2 mM KCl, 1 mM MgCl2 buffered with 5 mM HEPES/NaOH, pH 7.5) supplemented with collagenase D (0.1%, w/v; Roche), BSA (0.5%, w/v), and 9 mm Na2HPO4 at 18 °C for 14-16 h while gentle shaking. After incubation, the oocytes were carefully washed several times with ND96 buffer (96 mM NaCl, 2 mM KCl, 1.8 mM CaCl2, 1 mM MgCl2 buffered with 5 mM HEPES/NaOH, pH 7.5) supplemented with 100 mg l^−1 gentamycin). Defolliculated and healthy-looking stage V-VI oocytes were manually selected for RNA microinjection. The RNA was generated as following: The codon-optimized sequences of PfCRT variants were cloned into the pSP64T expression vector. After vector linearization using the restriction endonucleases BamHI or SalI (New England Biolabs), transcription was performed using the in vitro SP6 mMessage mMachine Kit (Ambion)[34]. The obtained RNA was kept at −80 °C and diluted with nuclease-free water to a concentration of 0.6 μg μl^−1. Precision-bore glass capillary tubes (3.5-inch glass capillaries; Drummond Scientific Co.) were pulled on a vertical puller (P-87 Flaming/Brown micropipette puller, Sutter Instrument Co.), graduated, and placed on a microinjector (Nanoject II Auto-Nanoliter Injector, Drummond Scientific Co.). 50 nl of nuclease-free water alone (control oocytes) or 50 nl of 0.6 μg μl^−1 RNA were injected under stereomicroscopic control. Injected oocytes were incubated for 46–72 h at 18 °C with twice-daily buffer changes before usage in experiments.\nDrug uptake assays were performed as described previously[21],[22],[24],[34]. […] The direction of radio-labeled drug transport is here from the mostly acidic extracellular solution (pH 4.5 or 6.0, as indicated) into the oocyte cytosol (pH ∼ 7.2), which corresponds to the efflux of drug from the acidic digestive vacuole (pH 5.2) into the parasite cytoplasm (pH 7.2). The topology of PfCRT in the oolemma is such that both the N- and C-terminus face the extracellular milieu[3],[22]. In the parasite, the N- and C-terminus face the lumen of the digestive vacuole. […] For determination of the amount of drug uptake for each oocyte, the reaction medium was removed and the oocytes were washed three times with 2 ml of ice-cold ND96 buffer. Each oocyte was individually transferred to a scintillation vial containing 5% sodium dodecyl sulfate (200 μl) for lysis. […] Oocytes that were injected with water instead of RNA were analyzed in parallel, representing the uptake of a drug by diffusion and/or endogenous permeation pathways. The resulting value represents the “background“ level of drug accumulation in oocytes (in-depth discussion in[22]). The specific PfCRT-mediated uptake was determined by subtracting the corresponding background value measured in water-injected oocytes from that of PfCRT-expressing oocytes. In all cases, at least three separate experiments were performed on oocytes from different frogs (biological replicate), and for each condition in an experiment, measurements were made from 10 oocytes per treatment. For pH 5.5, 6.0, and 6.5, ND96 was buffered with 5 mM MES/Tris base."}, "PfCRT variant H97A": {"biological_target": "T2, PfCRT variant H97A (Plasmodium falciparum, UniProt Q9N623, A220S/H97A/I356T/K76T/M74I/N326S/N75E/Q271E/R371I)", "T2 sequence (Q9N623 1-424 M74I/N75E/K76T/H97A/A220S/Q271E/N326S/I356T/R371I)": "T1 sequence (Q9N623 1-424 M74I/N75E/K76T/E207L/A220S/Q271E/N326S/I356T/R371I) with H97A, L207E", "experiment": "CQ uptake assay, oocytes expressing H97A", "type": "cell-based", "method": "as §1, §2\nDrug uptake assays were performed as described previously[21],[22],[24],[34]. […] Oocytes that were injected with water instead of RNA were analyzed in parallel, representing the uptake of a drug by diffusion and/or endogenous permeation pathways. […] The specific PfCRT-mediated uptake was determined by subtracting the corresponding background value measured in water-injected oocytes from that of PfCRT-expressing oocytes. […]"}, "[1]": {"conditions": "E207L, 50 µM CQ, 1 h, mean ± SEM"}},
  "note": "Positions count from the first letter of the chain named. Values joined by “and” are separate entries in the source; they are usually repeats but may differ in a detail not shown here. Equal entries are not always repeated.",
  "data": [
    {"smiles": "CCN(CC)CCCC(C)Nc1ccnc2cc(Cl)ccc12", "note": "(stereo not shown) [CQ, chloroquine]", "values": [
      {"measurement": "Activity at pH 4.5", "setting": "PfCRT variant E207L; [1]", "value": "2.10 ± 0.17", "unit": "pmol h-1 oocyte-1"},
      {"measurement": "Activity at pH 6.0", "setting": "PfCRT variant E207L; [1]", "value": "2.25 ± 0.22", "unit": "pmol h-1 oocyte-1"},
      {"measurement": "R-value", "setting": "PfCRT variant E207L; E207L, CQ transport at pH 4.5 / pH 6.0", "value": "0.95 ± 0.04"},
      {"measurement": "E207L transport activity pH 4.5", "setting": "PfCRT variant E207L; pH 4.5, individual replicates, Fig 6b", "value": "2.14 pmol oocyte-1 h-1 and 2.36 pmol oocyte-1 h-1 and 2.37 pmol oocyte-1 h-1 and 1.53 pmol oocyte-1 h-1"},
      {"measurement": "E207L transport activity pH 6.0", "setting": "PfCRT variant E207L; pH 6.0, individual replicates, Fig 6b", "value": "2.70 pmol oocyte-1 h-1 and 2.35 pmol oocyte-1 h-1 and 1.52 pmol oocyte-1 h-1"},
      {"measurement": "E207L R-value", "setting": "PfCRT variant E207L; ratio of activity pH 4.5 / pH 6.0", "value": "0.79 and 1.00 and 0.98 and 1.01"},
      {"measurement": "Activity at pH 6.0", "setting": "PfCRT variant H97A; H97A, 50 µM CQ, 1 h, mean ± SEM", "value": "6.57 ± 0.71", "unit": "pmol h-1 oocyte-1"},
      {"measurement": "R-value", "setting": "PfCRT variant H97A; H97A, CQ transport at pH 4.5 / pH 6.0", "value": "0.40 and 0.40 ± 0.04"},
      {"measurement": "H97A transport activity pH 4.5", "setting": "PfCRT variant H97A; pH 4.5, single replicates, Fig 1d left", "value": "3.71 pmol oocyte-1 h-1 and 4.69 pmol oocyte-1 h-1 and 2.51 pmol oocyte-1 h-1 and 3.21 pmol oocyte-1 h-1 and 2.32 pmol oocyte-1 h-1 and 1.49 pmol oocyte-1 h-1 and 2.15 pmol oocyte-1 h-1 and 1.58 pmol oocyte-1 h-1"},
      {"measurement": "H97A transport activity pH 6.0", "setting": "PfCRT variant H97A; pH 6.0, single replicates, Fig 1d left", "value": "9.31 pmol oocyte-1 h-1 and 6.25 pmol oocyte-1 h-1 and 4.00 pmol oocyte-1 h-1 and 9.52 pmol oocyte-1 h-1 and 5.42 pmol oocyte-1 h-1 and 3.89 pmol oocyte-1 h-1 and 6.61 pmol oocyte-1 h-1 and 7.56 pmol oocyte-1 h-1"}
    ]}
  ]
}
